Experimental findings from PubChem BioAssay (NCI) are described below.

SMILES strings stand for the structures.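 Interpolation was linear, between the two tested concentrations surrounding the appropriate level; five concentrations were tested over 48 hours in 96-well plates. Abbreviation: GI50, concentration required for 50% inhibition of growth. TGI marks complete inhibition of growth.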

Some test systems named below: CAKI-1 renal; MDA-MB-435; SW-620 colon; MOLT-4 leukemia; SK-OV-3 ovarian; HOP-92 NSCLC; NCI-H226 lung; OVCAR-8 ovarian.
Holding throughout (assay): DTP human tumour cell line panel, 48 h

Broadly, the GI50 is the concentration that inhibits growth by half. Usually TGI stands for the concentration at which net growth stops. Higher therefore signals lower sensitivity of the cells.

In the case of `O=C(NCc1ccncc1)C12CC3CC(C1)CC(c1ccc(Cl)cc1)(C3)C2`, the GI50 in the assay with CAKI-1 renal is 11.9 µM; in the assay with MDA-MB-435, 12.7 µM; with SW-620 colon, 13.7 µM; in the assay on MOLT-4 leukemia, 8.15 µM; in the assay on SK-OV-3 ovarian, 12.5 µM; in the assay on HOP-92 NSCLC it was 12 µM. Moreover, the GI50 in the assay on NCI-H226 lung is 12 µM. The TGI stood at 24.9 µM in the assay on CAKI-1 renal; 25.3 µM with MDA-MB-435; 28.5 µM in the assay on SW-620 colon; 27.2 µM in the assay with MOLT-4 leukemia; 25.2 µM with SK-OV-3 ovarian; 25.2 µM with HOP-92 NSCLC. Moreover, the TGI with NCI-H226 lung was found to be 31.1 µM.
Turning to `COc1ccc(-c2cc(-c3ccc(O)cc3)nc3n[nH]c(N)c23)cc1`, the GI50 in the assay with CAKI-1 renal is 20.2 µM; with MDA-MB-435, 22 µM; in the assay on SW-620 colon it was 15.6 µM; with OVCAR-8 ovarian, 26.1 µM; in the assay on MOLT-4 leukemia it was 26.9 µM; in the assay on HOP-92 NSCLC, 11.9 µM. Besides, the GI50 in the assay with NCI-H226 lung was 17.9 µM. In addition, the TGI in the assay with CAKI-1 renal was 78.3 µM; in the assay on MDA-MB-435 it was 47.4 µM; in the assay with SW-620 colon it was 38.1 µM; with OVCAR-8 ovarian it was 91.6 µM; in the assay with MOLT-4 leukemia it was > 100 µM; in the assay with HOP-92 NSCLC, 28.7 µM. In the assay with NCI-H226 lung, this compound had a TGI of 49.5 µM.
For the compound `CC(=O)C1(N=Nc2ccc(S(N)(=O)=O)cc2)CCOC1=O` (stereo unspecified), the TGI in the assay on CAKI-1 renal, in the assay on MDA-MB-435, with SW-620 colon, in the assay with OVCAR-8 ovarian, in the assay with SK-OV-3 ovarian and in the assay with HOP-92 NSCLC was > 100 µM in each case. Also, the concentration for total growth inhibition (TGI) with NCI-H226 lung was > 100 µM.
As for `S=c1nc(Cl)cc2[nH]c(Cl)cn12`, the TGI in the assay with CAKI-1 renal is > 100 µM; with MDA-MB-435 it was 4.74 µM; in the assay with SW-620 colon, > 100 µM; in the assay on OVCAR-8 ovarian it was 57.4 µM; in the assay on SK-OV-3 ovarian, 8.4 µM; with HOP-92 NSCLC, 96.9 µM. In addition, the TGI in the assay on NCI-H226 lung is > 100 µM.
As to `CN(C)CCCNC(=O)c1cncnc1Nc1ccc(OCc2cccc(F)c2)c(Cl)c1`, the GI50 in the assay on CAKI-1 renal is 1.66 µM; with MDA-MB-435, 1.8 µM; in the assay with SW-620 colon, 1.85 µM; with MOLT-4 leukemia, 1.67 µM; in the assay with SK-OV-3 ovarian it was 1.72 µM; with HOP-92 NSCLC, 1.33 µM. Also, the GI50 with NCI-H226 lung was 4.27 µM. For the same compound, the TGI worked out at 3.05 µM in the assay with CAKI-1 renal; 3.33 µM in the assay on MDA-MB-435; 3.32 µM in the assay on SW-620 colon; 3.4 µM in the assay on MOLT-4 leukemia; 3.23 µM with SK-OV-3 ovarian; 3.16 µM in the assay with HOP-92 NSCLC. The same compound registered a TGI in the assay on NCI-H226 lung of 19.6 µM.
As to `Cc1ccc(-c2nc(N3CCCNCC3)c3oc(-c4ccccc4)nc3n2)cc1`, the GI50 in the assay with CAKI-1 renal is 1.65 µM; with MDA-MB-435, 1.77 µM; with SW-620 colon, 1.68 µM; in the assay on MOLT-4 leukemia, 1.79 µM; with SK-OV-3 ovarian, 1.89 µM; in the assay on NCI-H226 lung, 1.82 µM. The TGI in the assay with CAKI-1 renal stood at 3.03 µM; in the assay on MDA-MB-435, 3.19 µM; with SW-620 colon, 3.21 µM; in the assay on MOLT-4 leukemia it was 3.58 µM; with SK-OV-3 ovarian, 3.31 µM; in the assay on NCI-H226 lung, 3.97 µM.
Consider `COc1cnc2c(c1)C(=O)c1c-2n(CCCNC(C)C)c(=O)c2cc(F)ccc12`, for which the 50% growth inhibitory concentration (GI50) in the assay on MDA-MB-435 is 0.309 µM; in the assay on SW-620 colon it was 0.122 µM; with OVCAR-8 ovarian, 0.141 µM; in the assay on MOLT-4 leukemia, 0.0362 µM; with SK-OV-3 ovarian it was 0.22 µM; in the assay on HOP-92 NSCLC, 0.284 µM. In the assay on NCI-H226 lung, the GI50 is 0.146 µM. The TGI turned out to be 1.48 µM with MDA-MB-435; 1.33 µM in the assay with SW-620 colon; 1.28 µM in the assay on OVCAR-8 ovarian; 0.267 µM with MOLT-4 leukemia; 0.707 µM in the assay on SK-OV-3 ovarian; 2.54 µM in the assay on HOP-92 NSCLC. In addition, the TGI in the assay with NCI-H226 lung amounted to 0.325 µM.
With `N#CC1=C(N)NC(=S)NC12Nc1ccccc1N2`, the GI50 with CAKI-1 renal is 19.8 µM; in the assay with MDA-MB-435, 19.6 µM; with SW-620 colon it was 59.5 µM; with OVCAR-8 ovarian it was 38.6 µM; in the assay on MOLT-4 leukemia, 22.2 µM; with SK-OV-3 ovarian it was 61 µM. Besides, the GI50 with NCI-H226 lung is 20.6 µM. Further, the TGI in the assay with CAKI-1 renal, in the assay with MDA-MB-435, in the assay with SW-620 colon, with OVCAR-8 ovarian, in the assay with MOLT-4 leukemia and in the assay with SK-OV-3 ovarian was > 100 µM in each case. The compound also displayed a TGI in the assay on NCI-H226 lung of 88.2 µM.
Turning to `COc1cc(OC)c(NC(=O)c2cc3ccccc3cc2O)cc1Cl`, the GI50 in the assay with CAKI-1 renal was 1.9 µM; in the assay on MDA-MB-435, 2.84 µM; with SW-620 colon, 3.63 µM; in the assay on OVCAR-8 ovarian, 2.88 µM; in the assay with MOLT-4 leukemia it was 3.98 µM; in the assay on HOP-92 NSCLC, 1.55 µM. In the assay on NCI-H226 lung, the GI50 is 3.32 µM. Moreover, the TGI came to 6.68 µM in the assay on CAKI-1 renal; 9.69 µM with MDA-MB-435; 18.8 µM in the assay with SW-620 colon; 8.45 µM in the assay with OVCAR-8 ovarian; 30.3 µM with MOLT-4 leukemia; 4.89 µM in the assay with HOP-92 NSCLC. In addition, in the assay on NCI-H226 lung, the TGI was determined as 17.7 µM.
Turning to `C=C(C)[C@@H]1CC[C@]2(CO)CC[C@]3(C)[C@H](CC[C@@H]4[C@@]5(C)CCC(NCCc6ccc(O)cc6)C(C)(C)[C@@H]5CC[C@]43C)[C@@H]12` (stereo partly specified), the GI50 in the assay on CAKI-1 renal is 1.54 µM; in the assay on MDA-MB-435, 1.43 µM; in the assay with SW-620 colon it was 1.41 µM; in the assay on MOLT-4 leukemia, 1.38 µM; with SK-OV-3 ovarian, 1.77 µM; with HOP-92 NSCLC, 1.46 µM. Besides, the TGI in the assay on CAKI-1 renal came to 2.88 µM; in the assay on MDA-MB-435, 2.77 µM; in the assay on SW-620 colon, 2.89 µM; with MOLT-4 leukemia, 3.38 µM; with SK-OV-3 ovarian it was 3.21 µM; in the assay on HOP-92 NSCLC, 2.95 µM.
Take `OCC1OC(n2cnc3c(Cl)nc(Cl)cc32)C(O)C1O` (stereo unspecified): the GI50 with CAKI-1 renal, with MDA-MB-435, with SW-620 colon, in the assay with OVCAR-8 ovarian, in the assay with MOLT-4 leukemia and in the assay on SK-OV-3 ovarian was > 100 µM in each case. The GI50 in the assay on HOP-92 NSCLC was 37.4 µM. Moreover, the TGI with CAKI-1 renal, in the assay on MDA-MB-435, in the assay on SW-620 colon, in the assay on OVCAR-8 ovarian, in the assay with MOLT-4 leukemia and in the assay with SK-OV-3 ovarian was > 100 µM in each case. Also, the TGI in the assay on HOP-92 NSCLC was > 100 µM.
